From patent publication US20100160228A1, “METHOD FOR INHIBITING OR STIMULATING ANGIOGENESIS IN AN INDIVIDUAL” (VALTION TEKNILLINEN TUTKIMUSKESKUS, priority 2007, published 2010)

Assays:
Format in all cases: cell-based, human
VEGFR2 [1] = test: VEGFR2 kinase activity from HUVEC lysates (Kinase-Glo Plus); settings: FIG. 4B
Protocol: (§1) (A) Serum-starved subconfluent HUVEC were treated for 1 h with α1 integrin cytoplasmic tail fusion peptide (α1TAT) or TAT-scramble control fusion peptide (ScrTAT) (both at 200 nM) followed by VEGF-induction (100 ng/ml, 15 min) where indicated. Cell lysates were resolved on SDS-PAGE and immunoblotted for phosphorylated VEGFR2 (or tubulin as a control). (B) HUVEC were treated as in (A) and VEGFR2 kinase activity (mean±SD, n=3) was measured from the cell lysates. **, p<0.01. (C) Recombinant, purified TCPTP was incubated with α1 or α2 cytoplasmic tail peptides (L-amino acids) or with α1 and scrambled TAT peptides (D-amino acids) and analyzed for phosphatase activity (mean±SD, n=3).
VEGFR2 kinase activity was studied using Kinase-Glo Plus kinase assay kit according to manufacturer's protocol (Promega) with 25 µM ATP. Briefly, HUVEC plated on gelatin were serum-starved overnight, treated with 400 nM α1TAT or ScrTAT or left untreated and stimulated with 100 ng/ml VEGF for 15 min, when indicated. The cells were lysed to ice-cold lysis buffer (1% NP-40, 20 mM Hepes pH 7.4, 150 mM NaCl, 10% glycerol, 2.5 mM EDTA, complete protease inhibitor (Roche) and phosphatase inhibitor coctails I and II (Sigma)). The lysates were incubated in anti-VEGFR2 or control IgG-coated wells with shaking for 2 h and washed 3 times with lysis buffer and 3 times with cold kinase assay buffer (20 mM Hepes pH 8, 0.1 mM Na3VO4, 10 mM MnCl2, 1 mM DTT). Kinase assay was performed for 10 min at +37° C.

HUVEC [2] = test: Survival of confluent HUVEC (WST-1); settings: confluent HUVEC on gelatin, WST-1, FIG. 10B
Protocol: (§2) FIG. 10. […] (A) Serum-starved HUVEC were plated to confluency on gelatin and treated for 1 h with α1 integrin cytoplasmic tail fusion peptide (α1TAT) or TAT-scramble control fusion peptide (ScrTAT) (both at 200 nM) or not treated, followed by VEGF-induction (15 min) when indicated. Cell lysates were immunoblotted for phosphorylated VEGFR2 (or tubulin as a control). (B) Confluent HUVEC on gelatin were treated with VEGF in the presence or absence of α1TAT or ScrTAT peptide and the number of live cells was detected using WST-1 reagent (mean±SD, n=3). (C) α1TAT treatment has no effect on internalization of VEGFR2 in confluent HUVEC. HUVEC were plated to confluency on gelatin, stimulated or not with the TAT peptides (200 nM) and VEGF, and treated with trypsin on ice. Cells were lysed after inactivation of trypsin and the lysates were immunoblotted for detection of VEGFR2 protected from trypsin (=internalized pool). The intensity of VEGFR2 bands was quantitated using densitometry (a representative experiment out of 3 with similar results is shown).
(§3) Cell proliferation and survival assays. The number of viable HUVEC was analyzed with WST-1 reagent (Roche). Cell proliferation was measured with BrdU assay (Cell proliferation ELISA Biotrak system, Amersham) from siRNA-transfected HUVEC grown in RPMI1640+1% FBS+2 mM L-glutamine supplemented with 80 ng/ml VEGF.

VEGFR2 [3] = test: Immunoblot of phosphorylated VEGFR2 in HUVEC lysates; settings: for effect on VEGFR2 phosphorylation in confluent cells: confluent HUVEC, FIG. 10A; for effect on VEGFR2 phosphorylation in confluent cells / effect of TAT peptides on VEGFR2 phosphorylation: peptide 200 nM
Protocol: as §1, with “FIG. 4. α1 integrin activates TCPTP and attenuates VEGFR2 signalling. (A) Serum-starved” for “(A) Serum-starved”
as §2

HUVEC [4] = test: VEGF-induced HUVEC proliferation assay; settings: subconfluent HUVEC on gelatine, compared to no peptide treatment, n=3
Protocol: FIG. 3. TCPTP activity controls VEGF-dependent responses in endothelial cells. (A) HUVEC were transfected with the constitutively active TCPTP (TC37) or vector control (pCG), stimulated or not with VEGF, and stained for VEGFR2 (red) and nuclei (blue) after fixation and permeabilization. Arrows indicate VEGFR2 vesicles. (B) HUVEC were treated as in (A) and subjected to trypsin digestion on ice. VEGFR2 protected from trypsin (=internalized pool) was detected by immunoblotting. The intensities of VEGFR2 bands were quantified and are expressed relative to pCG-VEGF control. A representative experiment out of 2 with similar results is shown. (C) HUVEC were transfected with no oligo, siRNA against TCPTP or a control siRNA, and TCPTP expression was measured using immunoblotting. […] (D) HUVEC were transfected as in (A) and chemotaxis towards VEGF was measured using a Transwell assay for 4 hours. […] Number of migrated cells was counted (mean±SEM, n=3).
as §3

Sequence	increase of VEGFR2 kinase activity upon VEGF-stimulation (VEGFR2 [1]; HUVEC treated with no peptide or with scrambled control TAT peptide)	effect on survival of HUVEC in confluent cells (HUVEC [2])	effect on VEGFR2 phosphorylation in confluent cells (VEGFR2 [3])	effect of TAT peptides on VEGFR2 phosphorylation (VEGFR2 [3]; subconfluent HUVEC, FIG. 4A)	inhibition of VEGF-induced proliferation (HUVEC [4])	kinase activity of VEGFR2 in VEGF-treated HUVEC (VEGFR2 [1]; VEGF 100 ng/ml 15 min)	VEGF-induced autophosphorylation of VEGFR2 at tyrosine 1214 (VEGFR2 [3]; subconfluent HUVEC, peptide 200 nM 1 h, VEGF 100 ng/ml 15 min, FIG. 4A)
YGRKKRRQRRRLKGWRFKLKPKFKEMK (SEQ ID NO 8) [ScrTAT, reference compound]	about 10 fold	no effects	no effects	induced a clear phosphorylation	4±4%	–	–
YGRKKRRQRRRWKLGFFKRPLKKKMEK (SEQ ID NO 3) [α1TAT]	–	no effects	no effects	effectively attenuated	74±8%	completely abolished	markedly inhibited
